In US12037325B2, “1,2-diaminobenzimidazole derivative” (Carna Biosciences, Inc., priority 2021, dated 2024):
Where a name gives a salt, the structure may show the parent alone.

What was measured:
STING = biological target: T1, STING (Homo sapiens, UniProt Q86WV6, G230A/H232R/R293Q/R71H); experiment: Inhibition test of human IFN-β production by cGAMP stimulation in THP-1 cells; assay type: cell-based; settings: PMA-treated THP-1 cells, 2'3'-cGAMP transfection, 18 hours, ELISA of culture supernatant; read-out: Inhibitory effect on the IFN-β production
T1 construct: host or cells: THP-1 cells, PMA-treated
T1 sequence (Q86WV6 whole entry R71H/G230A/H232R/R293Q): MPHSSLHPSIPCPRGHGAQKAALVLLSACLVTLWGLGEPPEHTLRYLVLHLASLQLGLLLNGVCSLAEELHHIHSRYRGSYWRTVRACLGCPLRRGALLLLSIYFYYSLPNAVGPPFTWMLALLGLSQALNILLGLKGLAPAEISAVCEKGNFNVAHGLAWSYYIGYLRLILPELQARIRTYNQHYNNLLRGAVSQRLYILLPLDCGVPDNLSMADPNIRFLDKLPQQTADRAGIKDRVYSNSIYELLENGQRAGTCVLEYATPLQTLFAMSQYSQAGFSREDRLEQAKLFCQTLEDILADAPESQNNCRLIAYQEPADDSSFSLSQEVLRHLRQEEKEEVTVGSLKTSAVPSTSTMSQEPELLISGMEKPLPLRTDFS
Method: The human monocytic cell line THP-1 cells were used to measure the amount of IFN-β produced when stimulated with the endogenous ligand cGAMP, thereby evaluating the inhibitory activity of the test compounds on STING activation.
After THP-1 cells (manufactured by ATCC) were seeded in 96-well plates, PMA (manufactured by Santa Cruz Biotechnology, Inc.) adjusted to a concentration after addition of 100 nM was added and cultured overnight at a 37° C. in a 5% CO2 incubator (10% FBS, 50 U/mL penicillin/50 μg/mL streptomycin-containing RPMI 1640 medium). To each well of the plate, a test compound solution adjusted to a final concentration of 0.001-1 μM of the test compound was added and cultured in the CO2 incubator for 1 hour (DMSO final concentration of 0.1%). 0.12 μg/well of 2′3′-cGAMP (manufactured by ChemieTek, #CT-CGAMP) was introduced into the cells by transfection method using Lipofectamine 2000 (manufactured by Invitrogen) and cultured in the CO2 incubator for another 18 hours. After collecting the culture supernatant from each well, the amount of human IFN-P production in the culture supernatant was measured by ELISA method using R&D human IFN-β Duoset (manufactured by R&D systems).
(§1) Method for Evaluating Inhibitory Activity. Taking the amount of human IFN-β production in the group without test compounds added and with cGAMP added as 100% and the amount of human IFN-β production in the group without test compounds added and without cGAMP added as 0%, IC50 values were determined by regression analysis of the inhibition rate calculated from the amount of human IFN-β production at each compound concentration and the test compound concentration (logarithm).
Evaluation Result. […] The inhibitory effect on the IFN-β production was indicated by marking an IC50 value of less than 0.01 μM with ***, that of 0.01 μM or more and less than 0.1 μM with **, that of 0.1 μM or more and less than 1 μM with *, and that of 1 μM or more with “-”, and NT was marked as unmeasured.

hSTING = biological target: T2, hSTING (Homo sapiens, UniProt Q86WV6); experiment: Inhibition test of intracellular human STING (hSTING) pathways using reporter cells (HEK-Blue ISG, SEAP reporter); assay type: cell-based; settings: stimulation with Compound 3 (10 nM), 21 hours, read-out: Inhibitory Activity on hSTING
T2 construct: host or cells: HEK-Blue ISG cells (HEK293-derived SEAP reporter line)
T2 sequence (Q86WV6 whole entry H232R): as the sequence (Q86WV6 whole entry R71H/G230A/H232R/R293Q) above, with H71R, A230G, Q293R counted along it
Method: Since STING activates the transcription factor IRF3 by ligand stimulation, the activity of STING can be evaluated by a reporter assay using a secreted alkaline phosphatase (SEAP reporter) incorporated downstream of the IRF-inducible promoter. In other words, the hSTING inhibitory activity of the test compounds was evaluated using HEK-Blue™ ISG cells (manufactured by InvivoGen, #hkb-isg-1) into which the SEAP reporter was incorporated. The activation of hSTING was performed by stimulation with the small molecule ligand, Compound 3 as described in the literature (Ramanjulu, J. M., et al., Nature. 2018, 564 (7736), 439-443).
The HEK-Blue™ ISG cells were seeded in 96-well plates and cultured overnight at 37° C. in a 5% CO2 incubator. To each well of the cell culture plates, a test compound solution adjusted to have a final concentration of 0.1 to 10 μM was added and cultured in the CO2 incubator for 1 hour. Then, the Compound 3 (final concentration of 10 nM) was added thereto and further cultured in the CO2 incubator for 21 hours. After collecting the culture supernatant from each well, the reporter activity was measured by luminous reaction of alkaline phosphatase.
as §1, with “reporter activity” for “amount of human IFN-β production”, “Compound 3” for “cGAMP”
Evaluation Result. […] The inhibitory effect on the hSTING was indicated by marking an IC50 value of less than 0.1 μM with ***, that of 0.1 μM or more and less than 1 μM with **, that of 1 μM or more and less than 10 μM with *, and that of 10 μM or more with “-”.

| Structure (SMILES) | IC50 (STING) | IC50 (hSTING) |
| --- | --- | --- |
| Cl.[2H]C([2H])([2H])Nn1c(Nc2c[nH]c3ccc(Cl)cc23)nc2cc(C(F)(F)F)ccc21 [Example 25, N2-(5-chloro-1H-indol-3-yl)-N1-(methyl-d3)-5-(trifluoromethyl)-1H-benzo[d]imidazole-1,2-diamine hydrochloride] | < 10 nM | < 100 nM |
| CNn1c(Nc2c[nH]c3ccc(Cl)nc23)nc2cc(C(F)(F)F)ccc21 [Example 26, N2-(5-chloro-1H-pyrrolo[3,2-b]pyridin-3-yl)-N1-methyl-5-(trifluoromethyl)-1H-benzo[d]imidazole-1,2-diamine hydrochloride] | 100 to 1000 nM | 1000 to 10000 nM |
| CNn1c(Nc2c[nH]c3ncc(Cl)cc23)nc2cc(C(F)(F)F)ccc21 [Example 27, N2-(5-chloro-1H-pyrrolo[2,3-b]pyridin-3-yl)-N1-methyl-5-(trifluoromethyl)-1H-benzo[d]imidazole-1,2-diamine hydrochloride] | 100 to 1000 nM | 100 to 1000 nM |

Other lines, results leading:

| IC50 (STING) | IC50 (hSTING) | Structure (SMILES) |
| --- | --- | --- |
| 10 to 100 nM | 100 to 1000 nM | Nn1c(Nc2c[nH]c3ccc(F)cc23)nc2cc(C(F)(F)F)ccc21 [Example 28, N2-(5-fluoro-1H-indol-3-yl)-5-(trifluoromethyl)-1H-benzo[d]imidazole-1,2-diamine] |
| 10 to 100 nM | < 100 nM | CCNn1c(Nc2c[nH]c3ccc(F)cc23)nc2cc(C(F)(F)F)ccc21 [Example 29, N1-ethyl-N2-(5-fluoro-1H-indol-3-yl)-5-(trifluoromethyl)-1H-benzo[d]imidazole-1,2-diamine] |
